Reference: patent US9205135B2, “Podocyte pH modulation and uses thereof” (University of Miami, priority 2009, dated 2015)
“Also recorded” adds a separate entry of the source. Residues, ends and D or L forms follow the SMILES beside them. *: point of attachment. Cbz = O=C(OCc1ccccc1)*; CH2F = FC*

Legend:
cathepsin L = assay: Cathepsin L activity in cultured podocytes, CV-(FR)2 substrate; format: cell-based, mouse
Procedure: Subcellular sites of cathepsin L and cathepsin B activity in glomerular extracts were visualized by a fluorogenic substrate, CV-(FR)2, which emits light upon cleavage by cathepsin L or cathepsin B (Biomol).
Measurement of cathepsin L activity: Cathepsin L activities in cultured podocytes and in glomeruli was measured using CV-CatL detection kit (Biomol, Plymouth Meeting, Pa.) as described in the manufacturer's instructions. The fluorophore cresyl violet [CV-(FR)2] substrate becomes florescent after Cat L cleavage of the attached Phe-Arg groups. This substrate easily penetrates the cell membrane and the membranes of the internal cellular organelles, enabling the detection of cathepsin activity within living podocytes.

podocytes [1] = assay: Glutamine uptake rate in cultured podocytes; format: cell-based, mouse; conditions: injury stimulus
Description: A podocyte metabolic model was constructed based on available databases as well as mRNA and protein expression data extracted from podocytes. The following podocyte culture models were employed: wildtype (control), LPS and PAN stimulated podocytes (inducible injury models) as well as podocytes with genetic deletion of the alpha3 gene (genetic disease model). All injury cultures increase the uptake of glutamine as well as gluconeogenic aminoacids. In addition, there is increasing ammonia production in diseased podocytes. These changes were predicted by the podocyte metabolic model and confirmed by measuring directly amino acids and ammonia (FIGS. 1A-1D).
Metabolic Flux Analysis emphasizes glutamine utilization pathways for podocyte function: We utilized cultured normal podocytes (control) (15) and three in vitro models for podocyte damage: i) podocytes with α3 integrin deletion (genetic model) (16); ii) podocytes treated with lipopolysaccharides (LPS, immunological model) (17); and iii) podocytes treated with puromycin aminonucleoside (PAN, toxic model) (18). […] Using the podocyte MFA network, we were able to extract podocyte aminoacid and glucose utilization (FIG. 10b-d) that was also independently measured in direct validation studies (data not shown). All analyzed modeling and experimentation data supported the notion that the aminoacid metabolism of podocytes is changed in disease. […]

HEK293 = assay: Glutamine uptake rate in HEK293 cells; format: cell-based
Procedure: (§1) All together, these experiments discovered a uniform metabolic response for podocytes that are injured.
(§2) Cells, antibodies, and standard techniques: Mouse podocyte cell lines (15) and HEK 293 cells (6) were grown as described previously. NIH 3T3 cells were cultured in Dulbecco's modified Eagle's minimal essential medium (Invitrogen, Carlsbad, Calif.) supplemented with 10% fetal calf serum (Invitrogen) and incubated in a humidified atmosphere of 95% air and 5% CO2 at 37° C. Antibody used for immunostaining are Alexa Fluor 594 phalloidin (Molecular Probes, Eugene, Oreg.). Subcellular fractionation was performed as described previously (6).

NIH 3T3 = assay: Glutamine uptake rate in NIH 3T3 cells; format: cell-based
Procedure: as §1, §2

cathepsin B = conditions: cited from earlier work
podocytes [2] = assay: Intracellular pH of cultured podocytes by CMFDA fluorescence; format: cell-based, mouse; conditions: glutamine present vs absent in culture medium; normal and α3 integrin deficient podocytes
Procedure: Podocyte pH was assessed with CMFDA—an indicator for pH. Higher green signal is consistent with a more alkaline cell. The presence of high glutamine levels in cell culture media alkalinizes the normal podocytes as well as podocytes that lack integrin α3β1 (genetic model cells for podocyte disease) (FIG. 3A). Both, LPS and PAN treatment stimulate cathepsin L activity in podocytes. Cathepsin L activity is lower in the presence of high glutamine in the cell culture media that in turn leads to a more alkaline podocyte cytosol (FIGS. 3B, 3C).
Modification of intracellular pH by glutamine: One of the key feature in podocyte injury that can be found in all three employed cellular podocyte models is the induction of cytosolic cathepsin L that in turn cleaves critical regulators of the podocyte microfilament system resulting in a reorganization of the podocyte actin cytoskeleton and proteinuria (6). In contrast to lysosomal cathepsin L, cytosolic cathepsin L is operating under non-acidic conditions. […] We used a fluorescent dye CMFDA (5-chloromethylfluorescein diacetate) that captures changes in intracellular pH by alterations in fluorescence (25). The more alkaline the pH, the more green fluorescence is detected (FIGS. 11a-c). […] Using CMFDA, the pH in control cells was determined at 7.1 and at 7.3 in α3 integrin-KO podocytes. […]

C57BL/6 mice = assay: LPS-induced proteinuria model in mice; format: in vivo, mouse; conditions: for glomerular pH (CMFDA fluorescence of isolated glomeruli): glutamine 0.75 mg/g
Procedure: Treatment of mice with glutamine increases podocyte pH and protects from LPS-induced proteinuria: In order to translate our in vitro findings into a kidney disease relevant model, we next utilized the LPS model in mice known to cause podocyte foot process effacement and proteinuria driven by induction of cytosolic cathepsin L (6). To this end, mice were either injected with only LPS or treated with high dose (0.75 mg/g) glutamine injection 10 min after LPS administration. We analyzed the relative alkalinity of glomeruli using isolated glomeruli that were incubated with green CMFDA. […] We also tested renal function and measured proteinuria in these mice. […] These effects were also visible on an ultrastructural level.
(§3) Immunohistochemistry and immunoelectron microscopy: For immunofluorescent labeling, sections were washed once with PBS and incubated with blocking solution (2% FCS, 2% BSA, 0.2% fish gelatin) for 30 min at room temperature before further incubation with the primary antibody for 1 h at room temperature. Antigen-antibody complexes were visualized with secondary antibodies conjugated with fluorochromes. Specimens were analyzed using a Zeiss confocal microscope (Germany). Ultrathin sections of the kidneys were examined with a Philips CM10 electron microscope (The Netherlands). The number of podocytic FPs was counted in 10 different areas of representative glomeruli. In each area, the number of FPs was calculated within a distance of 1 μm on the GBM (34).
Animals and treatments: All animal studies were performed under protocols approved by the University of Miami animal care and use committee. C57BL/6 mice were obtained from The Jackson Laboratory. The mouse model LPS-induced proteinuria was utilized as previously described (16). Glutamine (Invitrogen) is injected i.p. (0.75 mg/g mouse) 10 min after LPS ([…]) (Sigma Aldrich, St. Louis, Mo.) injection.

wt podocytes = assay: F-actin cytoskeleton staining of cultured podocytes; format: cell-based, mouse; conditions: wt podocytes after LPS treatment, glutamine in medium vs absent
Procedure: The absence of cathepsin L protected from LPS-mediated loss of F-actin.
as §2, §3

CN(C)c1ncnc2c1ncn2[C@@H]1O[C@H](CO)[C@@H](N)[C@H]1O [PAN, puromycin aminonucleoside]
cathepsin L activity in podocytes (cathepsin L; effect of the injury stimulus itself): stimulate
glutamine uptake rate (podocytes [1]): stimulated
glutamine uptake rate (HEK293): increasing glutamine uptake rate
glutamine uptake rate (NIH 3T3): increasing glutamine uptake rate

O=C(NC(Cc1ccccc1)C(=O)NC(Cc1ccccc1)C(=O)CF)OCc1ccccc1 (stereo not drawn) [Z-FF-FMK, Z-Phe-Phe-FMK] (Cbz-Phe-Phe-CH2F; configuration not given here)
inhibition of cathepsin B (cathepsin B): does not inhibit

NC(=O)CC[C@H](N)C(=O)O [glutamine]
podocyte cytosolic pH (CMFDA fluorescence) (podocytes [2]): alkalinizes; also recorded: more alkaline cytosolic pH
cathepsin L activity in podocytes (cathepsin L; high glutamine in cell culture media, LPS or PAN treated podocytes): lower
podocyte foot process effacement (electron microscopy) (C57BL/6 mice; LPS-treated mice with glutamine vs LPS only): protects; also recorded: decreased foot process effacement
glomerular pH (CMFDA fluorescence of isolated glomeruli) (C57BL/6 mice; LPS-treated mice): increase in CMFDA fluorescence; also recorded: glomerular alkalinization; also recorded: increased alkalinity
proteinuria (urinary protein/creatinine ratio) (C57BL/6 mice; LPS-treated mice, glutamine 0.75 mg/g i.p., 24 h): ameliorates; also recorded: significant lower
glomerular pH (CMFDA fluorescence of isolated glomeruli) (C57BL/6 mice; LPS-treated mice, listed as Glutamine): increase in CMFDA fluorescence
F-actin presence (wt podocytes): improved F-actin presence
